In patent US12485103B2, “Insulin secretion-promoting agent and blood sugar level improver using same, diabetes improver, and food” (REFINE HOLDINGS CO., LTD., priority 2019, dated 2025):

Test system: cell lines derived from mouse pancreatic β-cells
Assay: Insulin secretion into the culture medium measured by ELISA
Assay type: cell-based
Conditions: low- and high-glucose Ringer's solutions; 1 μg/mL or 10 μg/mL (any concentration); stimulated for 30 minutes
Experimental: Low- and high-glucose Ringer's solutions in the presence of 10 μg/mL pentadecanoic acid triglyceride were added in vitro to cell lines derived from mouse pancreatic β-cells. The cells were then stimulated for 30 minutes.
Separately, as a control, ethanol at concentration of 0.1% (v/v) were added to the cells.
Insulin secreted into the culture medium was measured by ELISA.
Low- and high-glucose Ringer's solutions in the presence of 1 μg/mL or 10 μg/mL pentadecanoic acid (PA in the Figure) were added in vitro to cell lines derived from mouse pancreatic β-cells. The cells were then stimulated for 30 minutes.

CCCCCCCCCCCCCCC(=O)O [pentadecanoic acid]
effect on insulin secretion: no effect
